Laboratory results taken from patent publication EP1981504B1, “THIADIAZOLE DERIVATIVES FOR THE TREATMENT OF NEURO DEGENERATIVE DISEASES” (NV reMYND, priority 2006, dated 2007).
≈ marks a conversion by molar mass, not a printed value.

Test system: M17-SYNwt cells
Assay: α-synuclein cytotoxicity assay (LDH leakage from paraquat-treated α-synuclein over-expressing neuroblastoma cells)
Assay type: cell-based, human
Conditions: paraquat 32 mM, 40 hours, LDH release; for EC50: Homo sapiens, Neuroblastoma cell, 10 point curves in duplicate; for %I: percent inhibition of synuclein cytotoxicity at most effective concentration of test compound, relative to untreated paraquat cells
Experimental: Subsequently, LDH activity was determined using Promega Cytotox 96 NonRadioactive cytotoxicity assay, (Cat. G1780) according the supplier's instructions.
This corresponds to the following equation: (LDHreleaseoftreatedparaquatcellsatnon-effectiveconcentrationoftestcmpd)−(LDHreleaseoftreatedparaquatcellsatmosteffectiveconcentrationoftestcmpd)/(LDHreleaseofuntreatedparaquatcells)−(LDHreleasecontrolcells)*100% [formula]
1,2,4-thiadazole compounds made according to the methods described herein were screened for activity using the α-synuclein cytotoxicity assay as described above. Dose responses were carried out on all compounds found to be active (10 point curves in duplicate).

Row | SMILES | EC50 | %I
1 | COc1cccc(S(=O)(=O)N2CCN(c3nc(Cc4ccc(F)cc4)ns3)CC2)c1 [Compound 44, 1-[3-methoxyphenylsulfonyl]-4-[3-(4-fluorobenzyl)-1,2,4-thiadiazol-5-yl]piperazine] | 0.0571 µg/mL (≈ 0.127 µM) | 99%
2 | Cc1ccc(Cc2nsc(N3CCN(S(=O)(=O)c4c(C)cc(C)cc4C)C(C)C3)n2)cc1 (stereo not drawn) [Compound 45, 1-[2,4,6-trimethylphenylsulfonyl]-4-[3-(4-methylbenzyl)-1,2,4-thiadiazol-5-yl]-2-methylpiperazine] | 1.2 µg/mL (≈ 2.55 µM) | 56%
3 | CC1CN(c2nc(Cc3ccc(F)cc3)ns2)CCN1S(=O)(=O)c1ccccc1 (stereo not drawn) [Compound 47, 1-phenylsulfonyl-4-[3-(4-fluorobenzyl)-1,2,4-thiadiazol-5-yl]-2-methylpiperazine] |  | 129%
4 | CC(=O)Nc1ccc(S(=O)(=O)N2CCN(c3nc(Cc4ccc(C)cc4)ns3)CC2C)cc1 (stereo not drawn) [Compound 48, 1-[4-acetamidophenylsulfonyl]-4-[3-(4-methylbenzyl)-1,2,4-thiadiazof-5-yl]-2-methylpiperazine] | 0.00844 µg/mL (≈ 0.0174 µM) | 91%
5 | CC(=O)Nc1ccc(S(=O)(=O)N2CCN(c3nc(Cc4ccc(C)cc4)ns3)CC2)cc1 [Compound 49, 1-[4-acetamidophenylsulfonyl]-4-[3-(4-methylbenzyl)-1,2,4-thiadiazol-5-yl]piperazine] | 0.000106 µg/mL (≈ 0.000225 µM) | 77%
6 | Cc1ccc(Cc2nsc(N3CCN(S(=O)(=O)c4ccc(C)cc4)C(C)C3)n2)cc1 (stereo not drawn) [Compound 50, 1-[4-methylphenylsulfonyl]-4-[3-(4-methylbenzyl)-1,2,4-thiadiazol-5-yl]-2-methylpiperazine] |  | 105%
7 | COc1ccc(S(=O)(=O)N2CCN(c3nc(Cc4ccc(Cl)cc4)ns3)CC2C)cc1 (stereo not drawn) [Compound 51, 1-[4-methoxyphenylsulfonyl]-4-[3-(4-chlorobenzyl)-1,2,4-thiadiazol-5-yl]-2-methylpiperazine] | 0.00135 µg/mL (≈ 0.00281 µM) | 94%
8 | O=S(=O)(c1ccc2ccccc2c1)N1CCN(c2nc(Cc3ccc(Cl)cc3)ns2)CC1 [Compound 52, 1-[2-naphtylsulfonyl]-4-[3-(4-chlorobenzyl)-1,2,4-thiadiazol-5-yl]piperazine] | 0.1 µg/mL (≈ 0.206 µM) | 104%
9 | CC1CN(c2nc(Cc3ccc(F)cc3)ns2)CCN1S(=O)(=O)c1ccc(C(C)(C)C)cc1 (stereo not drawn) [Compound 54, 1-[4-tert-butylphenylsulfonyl]-4-[3-(4-fluorobenzyl)-1,2,4-thiadiazol-5-yl]-2-methylpiperazine] |  | 60%
10 | CC(=O)Nc1ccc(S(=O)(=O)N2CCN(c3nc(Cc4ccc(F)cc4)ns3)CC2C)cc1 (stereo not drawn) [Compound 55, 1-[4-acetamidophenylsulfonyl]-4-[3-(4-fluorobenzyl)-1,2,4-thiadiazol-5-yl]-2-methylpiperazine] | 0.0781 µg/mL (≈ 0.16 µM) | 114%
11 | Cc1ccc(Cc2nsc(N3CCN(S(=O)(=O)c4cccc(C(F)(F)F)c4)C(C)C3)n2)cc1 (stereo not drawn) [Compound 56, 1-[3-trifluoromethylphenylsulfonyl]-4-[3-(4-methylbenzyl)-1,2,4-thiadiazol-5-yl]-2-methylpiperazine] |  | 87%
12 | Cc1ccc(Cc2nsc(N3CCN(S(=O)(=O)c4ccc(F)cc4)CC3)n2)cc1 [Compound 57, 1-[4-fluorophenylsulfonyl]-4-[3-(4-methylbenzyl)-1,2,4-thiadiazol-5-yl]piperazine] | 0.0104 µg/mL (≈ 0.024 µM) | 88%
13 | Cc1ccc(Cc2nsc(N3CCN(S(=O)(=O)c4ccc(F)cc4)C(C)C3)n2)cc1 (stereo not drawn) [Compound 58, 1-[4-fluorophenylsulfonyl]-4-[3-(4-methylbenzyl)-1,2,4-thiadiazol-5-yl]-2-methylpiperazine] | 0.061 µg/mL (≈ 0.137 µM) | 58%
14 | CC1CN(c2nc(Cc3ccc(F)cc3)ns2)CCN1S(=O)(=O)c1ccc(F)cc1 (stereo not drawn) [Compound 59, 1-[4-fluorophenylsulfonyl]-4-[3-(4-fluorobenzyl)-1,2,4-thiadiazol-5-yl]-2-methylpiperazine] |  | 42%
15 | COc1ccc(S(=O)(=O)N2CCN(c3nc(Cc4ccc(C)cc4)ns3)CC2C)cc1 (stereo not drawn) [Compound 60, 1-[4-methoxyphenylsulfonyl]-4-[3-(4-methylbenzyl)-1,2,4-thiadiazol-5-yl]-2-methylpiperazine] | 0.0013 µg/mL (≈ 0.00283 µM) | 93%
16 | CC(C)(C)c1ccc(S(=O)(=O)N2CCN(c3nc(Cc4ccc(F)cc4)ns3)CC2)cc1 [Compound 61, 1-[4-ter-butylphenylsulfonyl]-4-[3-(4-fluorobenzyl)-1,2,4-thiadiazol-5-yl]piperazine] |  | 47%
17 | Cc1ccc(Cc2nsc(N3CCN(S(=O)(=O)c4cccc(C(F)(F)F)c4)CC3)n2)cc1 [Compound 62, 1-[3-trifluoromethylphenylsulfonyl]-4-[3-(4-methylbenzyl)-1,2,4-thiadiazol-5-yl]piperazine] |  | 45%
18 | Cc1ccc(S(=O)(=O)N2CCN(c3nc(Cc4ccc(Cl)cc4)ns3)CC2)cc1 [Compound 63, 1-[4-methylphenylsulfonyl]-4-[3-(4-chlorobenzyl)-1,2,4-thiadiazol-5-yl]piperazine] | 0.0807 µg/mL (≈ 0.18 µM) | 83%
19 | Cc1ccc(Cc2nsc(N3CCN(S(=O)(=O)c4ccc(Br)cc4)CC3)n2)cc1 [Compound 64, 1-[4-bromophenylsulfonyl]-4-[3-(4-methylbenzyl)-1,2,4-thiadiazol-5-yl]piperazine] |  | 58%
20 | Cc1ccc(Cc2nsc(N3CCN(S(=O)(=O)c4ccc5ccccc5c4)CC3)n2)cc1 [Compound 65, 1-[2-naphtylsulfonyl]-4-[3-(4-methylbenzyl)-1,2,4-thiadiazol-5-yl]piperazine] | 0.0393 µg/mL (≈ 0.0845 µM) | 78%
21 | Cc1ccc(Cc2nsc(N3CCN(S(=O)(=O)c4ccc(Cl)cc4)CC3)n2)cc1 [Compound 66, 1-[4-chlorophenylsulfonyl]-4-[3-(4-methylbenzyl)-1,2,4-thiadiazol-5-yl]piperazine] |  | 81%
22 | Cc1ccc(Cc2nsc(N3CCN(S(=O)(=O)c4ccc(C(C)(C)C)cc4)CC3)n2)cc1 [Compound 67, 1-[4-tert-butylphenylsulfonyl]-4-[3-(4-methylbenzyl)-1,2,4-thiadiazol-5-yl]piperazine] |  | 41%
23 | COc1ccc(S(=O)(=O)N2CCN(c3nc(Cc4ccc(C)cc4)ns3)CC2)cc1 [Compound 68, 1-[4-methoxyphenylsulfonyl]-4-[3-(4-methylbenzyl)-1,2,4-thiadiazol-5-yl]piperazine] | 0.000255 µg/mL (≈ 0.000574 µM) | 53%
24 | CC(C)(C)c1ccc(S(=O)(=O)N2CCN(c3nc(Cc4ccc(Cl)cc4)ns3)CC2)cc1 [Compound 69, 1-[4-tert-butylphenylsulfonyl]-4-[3-(4-chlorobenzyl)-1,2,4-thiadiazol-5-yl]piperazine] |  | 31%
25 | Cc1ccc(Cc2nsc(N3CCN(S(=O)(=O)c4cccc5cccnc45)CC3)n2)cc1 [Compound 70, 1-[quinoline-8-sulfonyl]-4-[3-(4-methylbenzyl)-1,2,4-thiadiazol-5-yl]piperazine] |  | 44%
26 | Cc1ccc(Cc2nsc(N3CCN(S(=O)(=O)c4ccc([N+](=O)[O-])cc4)C(C)C3)n2)cc1 (stereo not drawn) [Compound 71, 1-[4-nitrophenylsulfonyl]-4-[3-(4-methylbenzyl)-1,2,4-thiadiazol-5-yl]-2-methylpiperazine] |  | 33%
